Experimental findings from ChEMBL document CHEMBL1128162, “Synthesis and binding properties of myo-inositol 4,5,6-tris(phosphate) an analogue of myo-inositol 1,4,5-tris(phosphate). Correlation with the ionization state of the molecules” (Bioorg Med Chem Lett, 1995) are described below.

Assay [1] deals with Inositol 1,4,5-trisphosphate receptor (Homo sapiens, UniProt Q14571+Q14573+Q14643). In words: Binding affinity against Ins(4,5)P2 receptor prepared from purified guinea pig hepatocytes. The arrangement: species or system Cavia porcellus. The note with it: hepatocyte.
Assay [2] can be described thus: Binding affinity against Ins(4,5,6)P3 receptor prepared from purified rat brain cerebellum. It counts as tissue-based.
The nature of assay [3]: Binding affinity against Ins(1,4,5)P3 receptor prepared from purified rat brain cerebellum. It counts as tissue-based.

Turning to `O=P(O)(O)O[C@@H]1[C@@H](O)[C@H](O)[C@H](O)[C@H](O)[C@H]1OP(=O)(O)O`, the IC50 in assay [1] was determined as 50 µM.
Regarding `O=P(O)(O)O[C@H]1[C@H](OP(=O)(O)O)[C@@H](O)[C@@H](O)[C@@H](O)[C@@H]1OP(=O)(O)O`, in assay [2], the IC50 turned out to be 9.3 µM.
In turn, `O=P(O)(O)O[C@@H]1[C@H](O)[C@H](O)[C@@H](OP(=O)(O)O)[C@H](OP(=O)(O)O)[C@H]1O` [INS(1,4,5)P3] returned an IC50 in assay [3] of 0.01 µM.
